Experimental data taken from ChEMBL document CHEMBL5325403, “Benzenesulfonyl thiazoloimines as unique multitargeting antibacterial agents towards Enterococcus faecalis” (Eur J Med Chem, 2023).
Values after ≈ are worked out from the molar mass of the structure shown.

What was measured:
Format in all cases: functional
Acinetobacter baumannii = experiment: Antibacterial activity against Acinetobacter baumannii assessed as inhibition of bacterial growth by continuous dilution method
Enterococcus faecalis = experiment: Antibacterial activity against Enterococcus faecalis assessed as inhibition of bacterial growth by continuous dilution method
Staphylococcus aureus [1] = experiment: Antibacterial activity against methicillin-resistant Staphylococcus aureus N315 assessed as inhibition of bacterial growth by continuous dilution method
Staphylococcus aureus [2] = experiment: Antibacterial activity against Staphylococcus aureus assessed as inhibition of bacterial growth by continuous dilution method
Pseudomonas aeruginosa [3] = experiment: Antibacterial activity against Pseudomonas aeruginosa assessed as inhibition of bacterial growth by continuous dilution method
Escherichia coli [4] = experiment: Antibacterial activity against Escherichia coli ATCC 25922 assessed as inhibition of bacterial growth by continuous dilution method
Klebsiella pneumoniae = experiment: Antibacterial activity against Klebsiella pneumoniae assessed as inhibition of bacterial growth by continuous dilution method
Pseudomonas aeruginosa [5] = experiment: Antibacterial activity against Pseudomonas aeruginosa ATCC 27853 assessed as inhibition of bacterial growth by continuous dilution method
Staphylococcus aureus [6] = experiment: Antibacterial activity against Staphylococcus aureus ATCC 29213 assessed as inhibition of bacterial growth by continuous dilution method
Escherichia coli [7] = experiment: Antibacterial activity against Escherichia coli assessed as inhibition of bacterial growth by continuous dilution method
Staphylococcus aureus [8] = experiment: Antibacterial activity against Staphylococcus aureus ATCC 25923 assessed as inhibition of bacterial growth by continuous dilution method

Structure (SMILES) | MIC (Acinetobacter baumannii) [µg/mL] | MIC (Enterococcus faecalis) [µg/mL] | MIC (Staphylococcus aureus [1]) [µg/mL] | MIC (Staphylococcus aureus [2]) [µg/mL] | MIC (Pseudomonas aeruginosa [3]) [µg/mL] | MIC (Escherichia coli [4]) [µg/mL] | MIC (Klebsiella pneumoniae) [µg/mL] | MIC (Pseudomonas aeruginosa [5]) [µg/mL] | MIC (Staphylococcus aureus [6]) [µg/mL] | MIC (Escherichia coli [7]) [µg/mL] | MIC (Staphylococcus aureus [8]) [µg/mL]
CCCCCCCCO/N=C(/CS(=O)(=O)c1ccc(N)cc1)c1nccs1 | 64 (≈ 156 µM) | 32 (≈ 78.1 µM) | 64 (≈ 156 µM) | 128 (≈ 313 µM) | 64 (≈ 156 µM) | 32 (≈ 78.1 µM) | 32 (≈ 78.1 µM) | 16 (≈ 39.1 µM) | 64 (≈ 156 µM) | 32 (≈ 78.1 µM) | 32 (≈ 78.1 µM)
C#CCO/N=C(/CS(=O)(=O)c1ccc(NC(C)=O)cc1)c1nccs1 | 128 (≈ 339 µM) | 64 (≈ 170 µM) | 32 (≈ 84.8 µM) | 64 (≈ 170 µM) | 64 (≈ 170 µM) | 16 (≈ 42.4 µM) | 32 (≈ 84.8 µM) | 64 (≈ 170 µM) | 64 (≈ 170 µM) | 32 (≈ 84.8 µM) | 64 (≈ 170 µM)
N#CCO/N=C(/CS(=O)(=O)c1ccc(N)cc1)c1nccs1 | 128 (≈ 381 µM) | 64 (≈ 190 µM) | 64 (≈ 190 µM) | 128 (≈ 381 µM) | 64 (≈ 190 µM) | 8 (≈ 23.8 µM) | 64 (≈ 190 µM) | 32 (≈ 95.1 µM) | 64 (≈ 190 µM) | 16 (≈ 47.6 µM) | 64 (≈ 190 µM)
CC(=O)Nc1ccc(S(=O)(=O)C/C(=N/NC(=O)Cc2ccccc2)c2nccs2)cc1 | 256 (≈ 561 µM) | 64 (≈ 140 µM) | 64 (≈ 140 µM) | 256 (≈ 561 µM) | 256 (≈ 561 µM) | 32 (≈ 70.1 µM) | 128 (≈ 280 µM) | 16 (≈ 35 µM) | 256 (≈ 561 µM) | 256 (≈ 561 µM) | 64 (≈ 140 µM)
CC(=O)Nc1ccc(S(=O)(=O)/C(=C\c2ccc(F)cc2)C(=O)c2nccs2)cc1 | 64 (≈ 149 µM) | 128 (≈ 297 µM) | 128 (≈ 297 µM) | 128 (≈ 297 µM) | 256 (≈ 595 µM) | 64 (≈ 149 µM) | 128 (≈ 297 µM) | 64 (≈ 149 µM) | 128 (≈ 297 µM) | 128 (≈ 297 µM) | 256 (≈ 595 µM)
CC(=O)Nc1ccc(S(=O)(=O)/C(=C\c2ccc(C#N)cc2)C(=O)c2nccs2)cc1 | 128 (≈ 293 µM) | 8 (≈ 18.3 µM) | 8 (≈ 18.3 µM) | 8 (≈ 18.3 µM) | 128 (≈ 293 µM) | 16 (≈ 36.6 µM) | 128 (≈ 293 µM) | 64 (≈ 146 µM) | 8 (≈ 18.3 µM) | 32 (≈ 73.1 µM) | 32 (≈ 73.1 µM)
Nc1ccc(S(=O)(=O)C/C(=N/O)c2nccs2)cc1 | 256 (≈ 861 µM) | 128 (≈ 430 µM) | 128 (≈ 430 µM) | 128 (≈ 430 µM) | 128 (≈ 430 µM) | 16 (≈ 53.8 µM) | 64 (≈ 215 µM) | 64 (≈ 215 µM) | 64 (≈ 215 µM) | 32 (≈ 108 µM) | 64 (≈ 215 µM)
CCO/N=C(/CS(=O)(=O)c1ccc(N)cc1)c1nccs1 | 128 (≈ 393 µM) | 64 (≈ 197 µM) | 256 (≈ 787 µM) | 256 (≈ 787 µM) | 64 (≈ 197 µM) | 32 (≈ 98.3 µM) | 32 (≈ 98.3 µM) | 32 (≈ 98.3 µM) | 64 (≈ 197 µM) | 16 (≈ 49.2 µM) | 64 (≈ 197 µM)
CCCCCCO/N=C(/CS(=O)(=O)c1ccc(N)cc1)c1nccs1 | 64 (≈ 168 µM) | 8 (≈ 21 µM) | 128 (≈ 335 µM) | 32 (≈ 83.9 µM) | 16 (≈ 41.9 µM) | 16 (≈ 41.9 µM) | 32 (≈ 83.9 µM) | 16 (≈ 41.9 µM) | 64 (≈ 168 µM) | 16 (≈ 41.9 µM) | 64 (≈ 168 µM)
Nc1ccc(S(=O)(=O)C/C(=N/OCc2ccc(Cl)cc2Cl)c2nccs2)cc1 | 64 (≈ 140 µM) | 16 (≈ 35.1 µM) | 64 (≈ 140 µM) | 64 (≈ 140 µM) | 64 (≈ 140 µM) | 16 (≈ 35.1 µM) | 32 (≈ 70.1 µM) | 16 (≈ 35.1 µM) | 64 (≈ 140 µM) | 32 (≈ 70.1 µM) | 64 (≈ 140 µM)
CC(=O)Nc1ccc(S(=O)(=O)C/C(=N/Nc2ccc(C(=O)O)cc2)c2nccs2)cc1 | 64 (≈ 140 µM) | 16 (≈ 34.9 µM) | 8 (≈ 17.4 µM) | 2 (≈ 4.36 µM) | 128 (≈ 279 µM) | 32 (≈ 69.8 µM) | 128 (≈ 279 µM) | 32 (≈ 69.8 µM) | 32 (≈ 69.8 µM) | 64 (≈ 140 µM) | 32 (≈ 69.8 µM)
CC(=O)Nc1ccc(S(=O)(=O)C/C(=N/O)c2nccs2)cc1 | 256 (≈ 754 µM) | 64 (≈ 189 µM) | 64 (≈ 189 µM) | 128 (≈ 377 µM) | 128 (≈ 377 µM) | 64 (≈ 189 µM) | 64 (≈ 189 µM) | 64 (≈ 189 µM) | 64 (≈ 189 µM) | 64 (≈ 189 µM) | 128 (≈ 377 µM)
